{"source": "patent US11560582B2", "about": "“Fusion moieties and microbial hosts for protein production” (priority 2018, dated 2023)", "molecules": {"B1": {"name": "AsExoI: Exonuclease I from Aliivibrio salmonicida (SEQ ID NO: 37), His-tagged, expressed in A. wodanis (protein, listed as Aliivibrio salmonicida)", "chain": "MPQDNAPSFFFFDYETWGTSPSLDRPCQFAGVRTDEDFNIIGEPLVIYCRPPIDYLPSPEACLITGITPQMAVSKGLSEPEFIAQIHNELSKPNTCSLGYNNIRFDDEVSRYTLYRNFFEPYGWSWQNGNSRWDLLDVMRAVYALRPEGIEWPKDEEGKPSFRLEKLSQANGIEHENAHDAMADVIATIELAKVVKKAQPKMFNYLLSMRHKKKAATLIDIIEMTPLMHVSGMFGVDRGNISWIVPVAWHPTNNNAVITIDLALDPAVFLELDAEQLHQRMYTKRSELGPDELPVPVKLVHLNKCPILAPAKTLTAENAIALNVDREACLRNLKVIRENPEIRQKLIDLYNIEPGYEKSSNVDTLLYDGFFSHADKTAIDMIRQSTPEQLIDFEPNVSDPRIKPLLFRYRARNFPHTLNESEQLRWQAHLQDYFETHMSDYETRFESLYLESEGNEKKTAILRAVYNYVQQLVS", "modifications": "6xHis tag"}, "B2": {"name": "AsPoIII: DNA polymerase II from Aliivibrio salmonicida (SEQ ID NO: 38), His-tagged, expressed in A. wodanis (protein, listed as Aliivibrio salmonicida)", "chain": "LNSPHCGFLLTRQNKDIRDHSLVDLWVKCDDHIAHLLIENELAVIFFLKERQAEYESILTNAHIHYSIKSTSLHTFQHQPVFGLYFSSTQQKRVATALFEDHQLPTFEGDIRLADRYLMERFICGGMAFVGTPRQRKGYVEYRDVKIKSAEMTPEFSVVSLDVECSEKGILYSVALHCERDTRIIMVGPEETSDLPIEWVENEKALLLALESWFQTFDPDIIIGWNVINFDFNLLIKRAKWHNLAFRLGRGNSSLYFRESNKNRQQGFLSFPGRVVLDGIDALKTATYHFSSWSLESVSQELLNEGKSIHDPSDRMGEINRMYREDKCALAKYNLQDCVLVTRIFELTHLLEFVIERTKLTGIELDRVGGSVAAFTNLYLPRLHRAGYIAPNLESENWIASPGGYVMSSKPGLYESVLVLDFKSLYPSIIKTFRIDPLGLVEGLKLESGIDDGQAIEGFRGGRFHRTKHFLPNLIETLWSARDVAKKNNEKAFSQAIKIIMNSFYGVLGSSGCRFFDHRLASSITMRGHEIMKTTRELIESQGYEVIYGDTDSTFVTLGESMPSDEADKIGKQLVDHINQWWTAHLESEYAIDSALEIEYETHYRIFLMPTIRGSEMGSKKRYAGLIRKGDKEEIIFKGLETVRTDWTPLSQEFQKVLFDKVFHQQAVEEYVREYVDKTKSGEFDNKLIYRKRLRRQLDEYQKNVPPHVKAARIADTQNQKLGKPLMYQQGGWIEYIITTAGPEPIEYRQNPIDYDHYVEKQLKPIAEGILPFVNLSFTELSASQLGLF", "modifications": "6xHis tag"}}, "key": {"A. wodanis strains": {"test_system": "A. wodanis strains", "conditions": "have been reported; cited from earlier work"}, "[1]": {"test_system": "A. wodanis strain 01/09/401 (11)", "assay": "Antibiotic susceptibility testing on LB plates", "assay_type": "cell-based, Aliivibrio wodanis", "conditions": "12° C. for 2 days", "method": "(§1) Antibiotic susceptibility testing was done by streaking A. wodanis cells onto LB plates supplemented with 2.5% NaCl and one of the following antibiotics: Chloramphenicol (2 μg/mL, Tetracycline (10 μg/mL), Carbenicillin (100 or 200 μg/mL) or Kanamycin (50 or 100 μg/mL). A. wodanis was regarded as susceptible (score=0) if no growth was detected, as intermediate susceptible (score=0.5) if poor growth was detected, or as resistant (score=1) if good growth was detected. The tested concentrations of antibiotics were similar to the recommended working concentrations for E. coli, except Chloramphenicol that was tested at 2 μg/mL (instead of 25 μg/mL). If the test scored as “resistant”, then the test was redone using 2× of the recommended concentration. All A. wodanis strains were streaked onto same agar plate and grown at 12° C. for 2 days."}, "[2]": {"test_system": "A. wodanis strain 02/09/382 (8)", "assay": "Antibiotic susceptibility testing on LB plates", "assay_type": "cell-based, Aliivibrio wodanis", "conditions": "12° C. for 2 days", "method": "as §1"}, "[3]": {"test_system": "A. wodanis strain 02/09/569 (7)", "assay": "Antibiotic susceptibility testing on LB plates", "assay_type": "cell-based, Aliivibrio wodanis", "conditions": "12° C. for 2 days", "method": "as §1"}, "[4]": {"test_system": "A. wodanis strain 03/09/160 (37)", "assay": "Antibiotic susceptibility testing on LB plates", "assay_type": "cell-based, Aliivibrio wodanis", "conditions": "12° C. for 2 days", "method": "as §1"}, "[5]": {"test_system": "A. wodanis strain 04/60/17347 (35)", "assay": "Antibiotic susceptibility testing on LB plates", "assay_type": "cell-based, Aliivibrio wodanis", "conditions": "12° C. for 2 days", "method": "as §1"}, "[6]": {"test_system": "A. wodanis strain 06/09/170 (27)", "assay": "Antibiotic susceptibility testing on LB plates", "assay_type": "cell-based, Aliivibrio wodanis", "conditions": "12° C. for 2 days", "method": "as §1"}, "[7]": {"test_system": "A. wodanis strain 06/09/178 (29)", "assay": "Antibiotic susceptibility testing on LB plates", "assay_type": "cell-based, Aliivibrio wodanis", "conditions": "12° C. for 2 days", "method": "as §1"}, "[8]": {"test_system": "A. wodanis strain 88/09/441 (12) (T)", "assay": "Antibiotic susceptibility testing on LB plates", "assay_type": "cell-based, Aliivibrio wodanis", "conditions": "12° C. for 2 days", "method": "as §1"}, "[9]": {"test_system": "A. wodanis strain 89/09/5532 (1)", "assay": "Antibiotic susceptibility testing on LB plates", "assay_type": "cell-based, Aliivibrio wodanis", "conditions": "12° C. for 2 days", "method": "as §1"}, "[10]": {"test_system": "A. wodanis strain 90/09/325 (5)", "assay": "Antibiotic susceptibility testing on LB plates", "assay_type": "cell-based, Aliivibrio wodanis", "conditions": "12° C. for 2 days", "method": "as §1"}, "[11]": {"test_system": "A. wodanis strain K7F1 150913", "assay_type": "cell-based, Aliivibrio wodanis", "conditions": "12° C. for 2 days", "method": "as §1"}, "[12]": {"test_system": "ssDNA \"molecular beacon\" substrate", "assay": "Exonuclease I molecular beacon activity assay", "assay_type": "biochemical", "conditions": "affinity purified enzyme expressed in A. wodanis 03/09/160; increasing enzyme", "method": "The two enzyme activity assays used in this work are both based on so-called “molecular beacons”. Each “molecular beacon” consists of a hairpin shaped DNA oligonucleotide with an internally quenched fluorophore (in this case FAM). TAMRA was used as the FAM quencher. Enzyme activity of affinity purified AsExoI and MvExoI were tested in 50 μL reactions containing the following: 0.2 μM ssDNA “molecular beacon” substrate (5′-FAM-CGCCATCGGAGGTTC-TAMRA-3′ (SEQ ID NO:45)), 50 mM Tris pH 8.5, 30 mM MgCl2, 1 mM DTT, 0.2 mg/ml BSA, 2% glycerol and 8.5 nM enzyme (Exonuclease I). The reaction was carried out in a black 96-well fluorescence assay plate (Corning®), and increase in FAM fluorescence (excitation at 485 nm, emission at 518 nm) was measured as relative fluorescence units (RFU) at appropriate time intervals for 40 min."}, "molecular beacon probe": {"test_system": "molecular beacon probe", "assay": "DNA polymerase molecular beacon activity assay", "assay_type": "biochemical", "conditions": "affinity purified enzyme expressed in A. wodanis 03/09/160; increasing enzyme", "source_text": "Activity assay for AsPoIII is based on a molecular beacon probe (5″-GGCCCGT^Dabcyl[…]^FAMACGGGCCGTCAAGTT CATG […]-3′ (SEQ ID NO:46)) (modified from Summerer, 2008). The molecular beacon probe consists of a 23mer loop that is connected by a GC-rich 8mer stem region (the 8-mer stem region consists of two 8 nucleotide sequences-sequences are indicated in italics) and a 43mer extension. The fluorophores Dabcyl and FAM are attached to the indicated “T” nucleotides. Due to the loop formation the fluorophores Dabcyl and FAM are in close proximity and thus quenched. Upon extension by the DNA polymerase I of the primer (5″-GTGGTGCGAAATTTCTGAC-3′ (SEQ ID NO:47)) that is annealed to the molecular beacon template the stem is opened and the increase in distance of the two fluorophores is measured by the restoration of FAM fluorescence (excitation 485 nm, emission 518 nm). Assay was monitored in 50 μL reactions containing 0.2 μM substrate (molecular beacon) mixed with 0.2 mM dNTP in 1× reaction buffer (250 mM Tris-HCl, pH 8.5, 250 mM, KCl, 25 mM MgCl2) and 1×DB (1 mg/ml BSA, 5 mM DTT, 10% glycerol). The mixture was first incubated at 25° C. for 5 min, and the reaction was started by adding the purified enzyme. Increase in fluorescence was measured (excitation 485 nm, emission 518 nm) for 15 min with 10 sec intervals (total of 91 reads). […]"}}}
{"molecule": "Cc1cc(NS(=O)(=O)c2ccc(N)cc2)no1", "note": "[sulfamethoxazole]", "values": [{"measurement": "Resistance of A. wodanis strains (reported)", "setting": "A. wodanis strains", "result": "Resistance"}]}
{"molecule": "CO[C@@]1(NC(=O)Cc2cccs2)C(=O)N2C(C(=O)O)=C(COC(N)=O)CS[C@@H]21", "note": "[cefoxitin]", "values": [{"measurement": "Resistance of A. wodanis strains (reported)", "setting": "A. wodanis strains", "result": "Resistance"}]}
{"molecule": "NC[C@H]1O[C@H](O[C@H]2[C@H](O)[C@@H](O[C@H]3O[C@H](CO)[C@@H](O)[C@H](N)[C@H]3O)[C@H](N)C[C@@H]2N)[C@H](O)[C@@H](O)[C@@H]1O", "note": "[KAN, Kanamycin]", "values": [{"measurement": "Antibiotics resistance KAN 50 μg/mL", "setting": "[1]; 50 μg/mL", "result": 1}, {"measurement": "Antibiotics resistance KAN 100 μg/mL", "setting": "[1]; 100 μg/mL", "result": 0.5}, {"measurement": "Antibiotics resistance KAN 50 μg/mL", "setting": "[2]; 50 μg/mL", "result": 1}, {"measurement": "Antibiotics resistance KAN 100 μg/mL", "setting": "[2]; 100 μg/mL", "result": 0.5}, {"measurement": "Antibiotics resistance KAN 50 μg/mL", "setting": "[3]; 50 μg/mL", "result": 1}, {"measurement": "Antibiotics resistance KAN 100 μg/mL", "setting": "[3]; 100 μg/mL", "result": 0.5}, {"measurement": "Antibiotics resistance KAN 50 μg/mL", "setting": "[4]; 50 μg/mL", "result": 1}, {"measurement": "Antibiotics resistance KAN 100 μg/mL", "setting": "[4]; 100 μg/mL", "result": 0.5}, {"measurement": "Antibiotics resistance KAN 50 μg/mL", "setting": "[5]; 50 μg/mL", "result": 1}, {"measurement": "Antibiotics resistance KAN 100 μg/mL", "setting": "[5]; 100 μg/mL", "result": 0.5}, {"measurement": "Antibiotics resistance KAN 50 μg/mL", "setting": "[6]; 50 μg/mL", "result": 0.5}, {"measurement": "Antibiotics resistance KAN 100 μg/mL", "setting": "[6]; 100 μg/mL", "result": 0.5}, {"measurement": "Antibiotics resistance KAN 50 μg/mL", "setting": "[7]; 50 μg/mL", "result": 1}, {"measurement": "Antibiotics resistance KAN 100 μg/mL", "setting": "[7]; 100 μg/mL", "result": 0.5}, {"measurement": "Antibiotics resistance KAN 50 μg/mL", "setting": "[8]; 50 μg/mL", "result": 1}, {"measurement": "Antibiotics resistance KAN 100 μg/mL", "setting": "[8]; 100 μg/mL", "result": 0.5}, {"measurement": "Antibiotics resistance KAN 50 μg/mL", "setting": "[9]; 50 μg/mL", "result": 1}, {"measurement": "Antibiotics resistance KAN 100 μg/mL", "setting": "[9]; 100 μg/mL", "result": 0.5}, {"measurement": "Antibiotics resistance KAN 50 μg/mL", "setting": "[10]; 50 μg/mL", "result": 1}, {"measurement": "Antibiotics resistance KAN 100 μg/mL", "setting": "[10]; 100 μg/mL", "result": 0.5}, {"measurement": "Antibiotics resistance KAN 50 μg/mL", "setting": "[11]; 50 μg/mL", "result": 1}, {"measurement": "Antibiotics resistance KAN 100 μg/mL", "setting": "[11]; 100 μg/mL", "result": 0.5}]}
{"molecule": "B1", "values": [{"measurement": "exonuclease activity (FAM fluorescence, RFU)", "setting": "[12]", "result": "dose-dependent"}]}
{"molecule": "B2", "values": [{"measurement": "DNA polymerase activity (FAM fluorescence, RFU)", "setting": "molecular beacon probe", "result": "dose-dependent"}]}
